# Data reported in patent US11479536B1 (King Abdulaziz University, priority 2022, dated 2022).
# Assays:
# T47D spheroids [1] = assay: Mitochondrial membrane potential assay (JC-1), T47D spheroids; assay type: cell-based, human; details: 48 h post treatment at IC50, control 15.67±2.05%
# Experimental: (§1) The mitochondrial membrane potential was investigated in response to the treatment with MAK compounds. This assay depends on the measurement of the aggregate fluorescence for Tetraethylbenzimidazolylcarbocyanine iodide (JC-1). This cationic dye accumulates in the energized mitochondria, and the increase in aggregate fluorescence indicates mitochondrial […] while the reduction indicates the depolarization state.
# (§2) After growing the cells and treating them with MAK compound for 48 hours, 2 μM of JC-1 final concentration was added and the mixture was incubated for 1 hour at 37° C. in presence of 5% CO2. Then, the samples were analyzed using flow cytometry. Mean values and standard deviation of replicates were calculated in comparison to the control group.
# CYP2D6 = target: T1, CYP2D6 (Homo sapiens, UniProt P10635); assay: Inhibition assay of human CYP450 enzymes, 2D6; assay type: in vitro ADME
# T1 construct: purchased Fisher Scientific; host or cells: insect supersomes
# Experimental: The two compounds MAK-1 and MAK-6 were assessed for its ability to inhibit the three major human CYP450 enzymes, 3A4, 2D6 and 2C9. Assays were run in triplicate. Expressed enzymes in insect supersomes (Fisher Scientific, Waltham, Mass.) were used to minimize non-specific binding and membrane partitioning issues (McMasters et al., 2007). The 3A4 assay uses testosterone as a substrate and analysis was performed by LC/MS/MS on a Waters Xevo TQ instrument as described above using positive electrospray ionization. Assay acceptance criteria was 20% for all standards and 25% for the LLOQ. The 2D6 and 2C9 assays use fluorescent substrates (3-[2-(N,N-diethylamino)ethyl]-7-methoxy-4-methylcoumarin for 2D6; 7-methoxy-4-(trifluoromethyl)coumarin for 2C9) and were analyzed on an Envision plate reader. GraphPad® Prism v 5.04 was used for nonlinear fitting of data to generate IC50 values.
# HL60 cell line = assay: Cell viability assay of HL60 cell line (CellTiter-Blue); assay type: cell-based, human; details: HL60, 48 h incubation; read-out: IC50 against leukemia cell lines HL60
# Experimental: HL60, K562, MV4-11 and NB4 were purchased from CLS Cell Line Service GmbH (Eppelheim, Germany). All cell lines were cultured in RPMI-1640 medium supplemented with 10% fetal bovine serum (FBS) (Thermo Fisher Scientific) and 0.1% ciprofloxacin (2.5 mg/ml; Cipla Limited; Mumbai, India), and were maintained at 37° C. in the presence of 21% O2 and 5% CO2.
# Cell viability was determined using the CellTiter®-Blue Cell Viability Assay kit (Promega, Madison, Wis., USA). Approximately 10^4 cells were counted and plated in a 96-well plate in the presence of test compounds ranging from 0.01 to 10 or 20 μM in triplicate and were incubated for 48 h at 37° C. in a humidified incubator. After the incubation period was complete, 20 μL of CellTiter®-Blue Cell Viability Assay reagent was added to each well and incubated for additional 2 h for the development of florescence. Florescence was measured at Ex/Em 540/590 on SpectraMax® i3 Multi-Mode microplate reader (Molecular Devices, LLC; San Jose, Calif., USA) and plotted against drug concentration to determine the IC50 of the test compounds. The IC50 was obtained by non-linear regression model using GraphPad Prism 6.07 (GraphPad Software, Inc, USA).
# MCF7 spheroids = assay: Mitochondrial membrane potential assay (JC-1), MCF7 spheroids; assay type: cell-based, human; details: 48 h post treatment at IC50, control 18.01±0.58%
# Experimental: as §1, §2
# [2] = Stability in mouse plasma; assay type: in vitro ADME; details: 37° C., duration of the assay (5 h)
# Experimental: The assay is conducted at 37° C. in triplicate. Test compounds or procaine (positive control) are tested at a final concentration of 1 μM in either 2.5% DMSO/CD-1 mouse plasma (Innovative Research, Novi, Mich.; sodium heparin added as anticoagulant; pH adjusted to 7.4 with 2N HCl on day of use) or 2.5% DMSO/PBS (pH 7.4: 136.9 mM NaCl, 2.68 mM KCl, 8.1 mM Na2HPO4, 1.47 mM KH2PO4, 0.9 mM CaCl2, 0.49 mM MgCl2). At seven time points, reaction mixture aliquots were transferred to 96-shallow well stop plates on ice containing acetonitrile with 0.1 μM propafenone. Samples were analyzed by LC/MS/MS on a Waters Xevo TQ instrument as described above using positive electrospray ionization. Assay acceptance criteria was 20% for all standards and 25% for the LLOQ. GraphPad® Prism v. 5.04 was used for nonlinear fitting of data to generate t1/2 values.
# T47D spheroids [3] = assay: Cytotoxicity assay (MTT) in spheroid culture, T47D; assay type: cell-based, human; details: for IC50: Homo sapiens, T47D, 3D spheroid model, 48 h, MTT; for reduction of spheroid size: T47D spheroids treated at IC50 for 48 h, vs control
# Experimental: 1×10^4 cells of each cell line (MCF7 and T47D) were seeded into ultra-low attachment 96 well plate at 37° C. and grown for 48 hours in DMEM media to result in the formation of spheroids. Then, the cells were subjected to the different treatment conditions before performing the assays.
# (§3) The cytotoxic effects of MAK compounds were assessed against MCF7 and T47D cell lines using MTT cell viability assay. The cells were treated for 48 hours with different concentrations of each MAK compound and the control cells were subjected to the vehicle (0.1% DMSO). Then, 10% of 5 mg/mL MTT was added to each well containing treated or control cells, and mixture was incubated at 37° C. for 3 hours. After that, the MTT-containing media was replaced with 100 μL DMSO and incubated for 10 minutes at room temperature before measuring the absorbance for each well at 570 nm. According to the measured absorbance, the IC50 was calculated for each compound. All the experiments were performed in biological and experimental replicates.
# T47D cell line = assay: Cytotoxic assay (MTT) in monolayer model, T47D; assay type: cell-based; details: Homo sapiens, 48 h, read-out: IC50 cytotoxic assay against T47D, monolayer
# Experimental: 1×10^6 cells of the human breast cancer cell lines MCF7 and T47D were seeded and grown at 37° C. with 5% CO2, in a Dulbecco's Modified Eagle Medium (DMEM) with 10% fetal bovine serum (Sigma). The cells were maintained until they reached the confluence over 90%. Then, the cells were subjected to the different treatment conditions before performing the assays.
# as §3
# T1 sequence (P10635 whole entry): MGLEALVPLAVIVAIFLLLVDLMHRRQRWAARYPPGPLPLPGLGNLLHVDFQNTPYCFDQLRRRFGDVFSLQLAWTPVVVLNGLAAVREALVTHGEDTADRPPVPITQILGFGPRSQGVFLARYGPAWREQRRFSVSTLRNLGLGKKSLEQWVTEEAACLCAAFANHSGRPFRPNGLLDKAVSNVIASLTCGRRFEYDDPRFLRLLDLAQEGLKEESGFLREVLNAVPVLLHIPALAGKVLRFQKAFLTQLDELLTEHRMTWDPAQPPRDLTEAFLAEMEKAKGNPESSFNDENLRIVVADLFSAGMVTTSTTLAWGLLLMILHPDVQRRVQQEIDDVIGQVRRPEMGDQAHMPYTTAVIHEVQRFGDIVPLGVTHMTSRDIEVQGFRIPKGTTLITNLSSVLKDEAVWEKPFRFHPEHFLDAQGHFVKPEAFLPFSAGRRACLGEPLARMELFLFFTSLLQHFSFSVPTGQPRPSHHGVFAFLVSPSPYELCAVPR
smiles,measurement,setting,value
"COc1cccc(C(=O)Nc2ccc(CC(=O)NCc3ccccc3)cc2)c1 [MAK-1, N-(4-(2-(benzylamino)-2-oxoethyl)phenyl)-3-methoxybenzamide]","depolarized cells (mitochondrial membrane), mean±SEM",T47D spheroids [1],36.77±1.17%
same,inhibition of CYP2D6,CYP2D6; concentrations up to 10 μM,no inhibition
same,IC50,HL60 cell line,3.27 ± 0.15 µM
same,"depolarized cells (mitochondrial membrane), mean±SEM",MCF7 spheroids,24.77±0.65%
same,stability in mouse plasma,[2],stable
same,IC50,T47D spheroids [3],13.9 ± 0.095 µM
same,reduction of spheroid size,T47D spheroids [3],noticeable reduction
"O=C(Cc1ccc(NC(=O)c2cccc(Cl)c2)cn1)NCc1ccccc1 [MAK-6, N-(6-(2-(benzylamino)-2-oxoethyl)pyridin-3-yl)-3-chlorobenzamide]","depolarized cells (mitochondrial membrane), mean±SEM",T47D spheroids [1],32.77±0.54%
same,IC50,T47D cell line,0.0012 µM
same,inhibition of CYP2D6,CYP2D6; concentration not given,did not display any inhibitory activity
same,"depolarized cells (mitochondrial membrane), mean±SEM",MCF7 spheroids,28.73±0.82%
same,IC50,T47D spheroids [3],7.29 ± 0.085 µM
same,reduction of spheroid size,T47D spheroids [3],noticeable reduction
